Article PMC8509676, “Residual Helicity at the Active Site of the Histidine Phosphocarrier, HPr, Modulates Binding Affinity to Its Natural Partners” (International Journal of Molecular Sciences, 2021)

Tests used:
EIN^sc = EIN^sc (Streptomyces coelicolor, UniProt Q9KZP1); assay: biochemical; assay type: binding
Experimental: Spectra were collected at 25 °C on a Cary spectrofluorometer (Agilent, Madrid, Spain), with a Peltier temperature controller. The samples were prepared the day before and left overnight at 5 °C. Before measurements, the samples were incubated for 1 h at 25 °C. A quartz cell with a 1 cm path length (Hellma, Kruibeke, Belgium) was used. In all the experiments, the slit widths were equal to 5 nm for both the excitation and emission lights. Protein samples were excited at either 280 or 295 nm. The experiments were performed between 300 and 400 nm. The signal was acquired for 1 s, and the increment of wavelength was set to 1 nm. Appropriate blank corrections were made in all spectra. For the binding experiments, 3 µM of either protein (Rsd^ec or EIN^sc) and 15 µM of the corresponding peptide were mixed. The experiments in aqueous solution were acquired in Tris buffer (50 mM, pH 7.0).
For the titration between either of the two proteins (Rsd^ec or EIN^sc) and the corresponding peptide, increasing amounts of the latter, in a concentration range of 0 to 30 µM, were added to a solution with a fixed concentration of each protein (3 µM). The experimental set-up was identical to that described above, including preparation of the samples the day before and their storage overnight at 5 °C. Before measurements, the samples were incubated for 1 h at 25 °C. The fluorescence of a blank solution containing only the corresponding peptide was subtracted for each data point. […] The Kd was determined by following the fluorescence at selected wavelengths and fitting experimental data to Equation (1). […] At all used concentrations, the fluorescence was corrected by the inner-filter effects.

[1] = test system: Staphylococcus aureus CECT59; assay type: cell-based; details: S. aureus CECT59, two-fold broth microdilution (CLSI), MH broth, 24 h, 37 °C; triplicate (sd = 0); highest concentration tested 400 µM
Experimental: The CECT59 strain of the Gram-positive bacteria Staphylococcus aureus from the Spanish Type Culture Collection (Colección Española de Cultivos Tipo, CECT, Universitat de Valencia, Spain) was used for determining its sensitivity to the HPr peptides studied in this work. The MIC for each peptide was determined by the two-fold broth microdilution method according to the Clinical and Laboratory Standards Institute (CLSI) guidelines, with some modifications as previously described. For this testing procedure, a bacteria colony previously grown in MH agar plates was isolated and incubated in MH broth at 37 °C overnight to prepare the bacteria inoculum to be used in each assay. Then, the bacteria suspensions were adjusted to a 100× dilution of an 0.5 McFarland turbidity standard in MH broth and incubated with different concentrations of each peptide in round-bottom 96-well polystyrene plates (Deltalab S.L., Rubí, Spain) (50 μL/well) for 24 h at 37 °C. The peptide concentrations employed comprised two-fold dilutions starting at either 120, 160, or 400 µM, depending on the experiment. […] All assays were performed in triplicate.

[2] = Far-UV CD, helicity from molar ellipticity at 222 nm; assay type: physicochemical; details: 5 °C
Experimental: Spectra were collected on a Jasco J810 spectropolarimeter (Jasco, Tokyo, Japan) interfaced with a Peltier unit. Far-UV measurements were performed with samples placed in quartz cells with a 0.1 cm path length (Hellma, Kruibeke, Belgium), with a response time of 2 s, a band width of 1 nm, and a scan velocity of 50 nm/min. For all peptides, a wide range of concentrations (10–50 µM) was used to determine whether either the shape or the intensity of the spectra was concentration-dependent. None of those features changed in the concentration range explored. The experiments in aqueous solution were acquired at 5 °C in Tris buffer (50 mM, pH 7.0). Raw ellipticity was converted to molar ellipticity, [Θ], from which the fraction of helical populations was determined as previously described. For the experiments in the presence of each protein (repeated three times), the same concentration used in the fluorescence experiments was used, and the experimental set-up was the same as described above for the isolated peptides.

[3] = aqueous solution; cited from earlier work
Description: Streptomyces is an actinomycete, Gram-positive organism with high content of G + C base pairs in its genome. We have carried out an extensive description of the structures and conformational stabilities of HPr^sc (O50515) and EI (EI^sc) (Q9KZP1) to understand their binding in the PTS cascade. We have also characterized the interaction of EI^sc with wild-type HPr^sc and that of the phosphorylated species, as well as that of the N-terminal domain of EI^sc (EIN^sc) with intact HPr^sc. We have also shown that the peptide comprising residues Ala9-Gly3 ...

[4] = target: EIN^sc (N-terminal domain of EI^sc) (Streptomyces coelicolor, UniProt Q9KZP1); assay: biochemical; assay type: binding
Sequence of EIN^sc (N-terminal domain of EI^sc) (Q9KZP1 1-230): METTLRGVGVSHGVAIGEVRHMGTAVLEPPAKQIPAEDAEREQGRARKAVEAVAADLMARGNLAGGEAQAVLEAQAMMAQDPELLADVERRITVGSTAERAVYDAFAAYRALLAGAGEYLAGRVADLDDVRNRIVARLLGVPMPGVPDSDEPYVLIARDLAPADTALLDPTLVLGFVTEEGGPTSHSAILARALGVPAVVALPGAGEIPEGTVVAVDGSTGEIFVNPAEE
Experimental: The experimental set-up and data processing of ITC experiments has been described previously. Rsd^ec or EIN^sc (at 10–20 µM) were injected into the cell, and the peptides in the syringe (100–200 µM) in 50 mM of Tris buffer, pH 7.0. The temperature for all the experiments was 25 °C. Typically, each calorimetric titration consisted of performing 19 injections with 2 μL volume, with a time spacing of 150 s, while stirring at 750 rpm in an Auto-iTC200 high-sensitivity microcalorimeter (MicroCal, Malvern-Panalytical, Malvern, UK). The results were analysed by applying a model that considered a single binding site (assuming a 1:1 stoichiometry) for the peptide/EIN^sc or peptide/Rsd^ec interaction using a nonlinear least-squares regression analysis in Origin 7.0 (OriginLab, Northampton, MA, USA) with user-defined fitting routines.

Sequence of EIN^sc (Q9KZP1 1-230): as above

## Ac-GWAEGLHARPASIFVRAATATG-NH2 [Wild-type]
EIN^sc
  Kd: 10 µM
[1]
  MIC: 40 µM
[2]; 50 mM Tris pH 7.0
  [Θ]^222 (value in parentheses): −612.44 deg cm^2 dmol^−1
[2]; 50 mM Tris pH 7.0, from [Θ]^222 assuming −39,500 deg cm^2 dmol^−1 for a fully formed α-helix
  Helicity (%): 1.6%
[3]
  helical population: about 7%
[4]
  Kd: 2.3 ± 0.4 µM
[4]; ITC, 25 °C, 50 mM Tris pH 7.0
  ΔH, EIN^sc: -0.8 ± 0.4 kcal/mol
